Experimental data as given in patent US20260256789A1, “METHODS FOR TREATMENT OF CANCER” (Frontier Medicines Corporation, priority 2022, published 2026).

Target: T1, KRAS G12C (GMPPNP-loaded) and cRAF Ras-binding domain (Homo sapiens, UniProt P01116, C118S/C51S/C80L/G12C)
T1 construct: truncated version comprising amino acids 1-169
Test: Inhibition of KRAS G12C and cRAF binding (AlphaScreen)
Conditions: KRAS G12C preloaded with GTP analogue GMPPNP, 2 hours preincubation
How it was run: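 AlphaScreen used biotin-AviTag KRAS G12C (Cys-light, aa 1-169; 0.5 nM), GMPPNP-loaded, preincubated 2 h with compound (top 50 μM, 1:3, 10 points, 2% DMSO) in pH 7.4 Hepes buffer with 10 μM GMPPNP. GST-cRAF RBD (aa 50-131; 0.75 nM) plus beads were then added for 60-90 min at room temperature, and IC50 came from a 4-parameter fit.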

T1 sequence (P01116 1-169 isoform P01116-2 G12C/C51S/C80L/C118S): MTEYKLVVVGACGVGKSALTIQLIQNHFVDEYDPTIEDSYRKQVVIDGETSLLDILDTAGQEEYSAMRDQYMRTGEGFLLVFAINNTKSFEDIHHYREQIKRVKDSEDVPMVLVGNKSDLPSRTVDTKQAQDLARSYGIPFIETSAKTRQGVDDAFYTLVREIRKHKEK

| Compound | IC50 |
| --- | --- |
| C=CC(=O)N1CC[C@@H](N(C)c2nc(OCC34CCCN3CCC4)nc3c2CC(C)C(c2nc(N)cc(C)c2C(F)(F)F)C3)C1 (stereo partly drawn) [Example 32, 1-((3R)-3-((7-(6-amino-4-methyl-3-(trifluoromethyl)pyridin-2-yl)-2-((hexahydro-1H-pyrrolizin-7a-yl)methoxy)-6-methyl-5,6,7,8-tetrahydroquinazolin-4-yl)(methyl)amino)pyrrolidin-1-yl)prop-2-en-1-one] | 10 to 100 nM |
| C=CC(=O)N1CC[C@@H](N(C)c2nc(OC[C@@]34CCCN3C[C@H](F)C4)nc3c(F)c(-c4nccc5cccc(Cl)c45)ncc23)C1 [Example 209] | ≥ 500 nM |
| Cc1cc(/C=C/C(=O)N2CC[C@@H](N(C)c3nc(OC[C@@]45CCCN4C[C@H](F)C5)nc4c(F)c(-c5cc(O)cc(Cl)c5C5CC5)ncc34)C2)nc(C)n1 [Example 201] | < 10 nM |
| Cc1cc(N)nc(-c2ncc3c(N(C)CC4CN(C(=O)/C=C/c5nc(C(C)C)no5)C4)nc(OC[C@@]45CCCN4C[C@H](F)C5)nc3c2F)c1C(F)(F)F [Example 153] | < 10 nM |
| Cc1cc(N)nc(-c2ncc3c(N(C)[C@@H]4CCN(C(=O)/C=C/c5nc(C6CC6)no5)C4)nc(OC[C@@]45CCCN4C[C@H](F)C5)nc3c2F)c1C(F)(F)F [Example 63, (E)-1-((R)-3-((7-(6-amino-4-methyl-3-(trifluoromethyl)pyridin-2-yl)-8-fluoro-2-(((2R,7aS)-2-fluorotetrahydro-1H-pyrrolizin-7a(5H)-yl)methoxy)pyrido[4,3-d]pyrimidin-4-yl)(methyl)amino)pyrrolidin-1-yl)-3-(3-cyclopropyl-1,2,4-oxadiazol-5-yl)prop-2-en-1-one] | < 10 nM |
| C=CC(=O)N1CC[C@@H](N(C)c2nc(OC[C@@]34CCCN3C[C@H](F)C4)nc3c2CC(C)C(c2nc(N)cc(C)c2C(F)(F)F)C3)C1 (stereo partly drawn) [Example 138] | 100 to 500 nM |
| CC(C)c1noc(/C=C/C(=O)N2CC[C@@H](N(C)c3nc(OC[C@@]45CCCN4C[C@H](F)C5)nc4c(F)c(-c5nc(N)ccc5F)ncc34)C2)n1 [Example 178, (E)-1-((R)-3-((7-(6-amino-3-fluoropyridin-2-yl)-8-fluoro-2-(((2R,7aS)-2-fluorotetrahydro-1H-pyrrolizin-7a(5H)-yl)methoxy)pyrido[4,3-d]pyrimidin-4-yl)(methyl)amino)pyrrolidin-1-yl)-3-(3-isopropyl-1,2,4-oxadiazol-5-yl)prop-2-en-1-one] | ≥ 500 nM |
| C=CC(=O)N1CC[C@@H](N(C)C2=c3cnc(-c4c[nH]nc4Cl)c(F)c3=NC(OC[C@@]34CCCN3C[C@H](F)C4)N2)C1 (stereo partly drawn) [Example 225] | ≥ 500 nM |
| Cc1cc(N)nc([C@@H]2Cc3nc(OC[C@@]45CCCN4C[C@H](F)C5)nc(N(C)[C@@H]4CCN(C(=O)/C=C/c5nc(C(C)(C)O)no5)C4)c3C[C@H]2C)c1C(F)(F)F [Example 89, (E)-1-((R)-3-(((6R,7R)-7-(6-amino-4-methyl-3-(trifluoromethyl)pyridin-2-yl)-2-(((2R,7aS)-2-fluorotetrahydro-1H-pyrrolizin-7a(5H)-yl)methoxy)-6-methyl-5,6,7,8-tetrahydroquinazolin-4-yl)(methyl)amino)pyrrolidin-1-yl)-3-(3-(2-hydroxypropan-2-yl)-1,2,4-oxadiazol-5-yl)prop-2-en-1-one] | < 10 nM |
| Cc1cc(N)nc(-c2ncc3c(N(C)[C@@H]4CCN(C(=O)/C=C/c5nc(C(C)C)no5)C4)nc(OC[C@@]45CCCN4C[C@H](F)C5)nc3c2F)c1C [Example 53, (E)-1-((R)-3-((7-(6-amino-3,4-dimethylpyridin-2-yl)-8-fluoro-2-(((2R,7aS)-2-fluorotetrahydro-1H-pyrrolizin-7a(5H)-yl)methoxy)pyrido[4,3-d]pyrimidin-4-yl)(methyl)amino)pyrrolidin-1-yl)-3-(3-isopropyl-1,2,4-oxadiazol-5-yl)prop-2-en-1-one] | 10 to 100 nM |
| Cc1noc(/C=C/C(=O)N2CC[C@@H](N(C)c3nc(OCC45CCCN4CCC5)nc4c3CC(C)C(c3nc(N)cc(C)c3C(F)(F)F)C4)C2)n1 (stereo partly drawn) [Example 143] | < 10 nM |
| Cc1cc(N)nc(-c2ncc3c(N(C)[C@@H]4CCN(C(=O)/C=C/CN5CCOCC5)C4)nc(OC[C@@]45CCCN4C[C@H](F)C5)nc3c2F)c1C(F)(F)F [Example 120] | 100 to 500 nM |
| C=CC(=O)N1CC[C@@H](N(C)c2nc(OC[C@@]34CCCN3C[C@H](F)C4)nc3c(F)c(-c4cccc(Cl)c4C4CC4)ncc23)[C@H]1C (single isomer, unassigned) [Example 77] | 100 to 500 nM |
| C=CC(=O)N1C[C@H](F)[C@@H](N(C)c2nc(OC[C@@]34CCCN3C[C@H](F)C4)nc3c(F)c(-c4cc(O)cc(Cl)c4C4CC4)ncc23)C1 [Example 243] | < 10 nM |
| C=CC(=O)N1CC(CN(C)c2nc(OC[C@@]34CCCN3C[C@H](F)C4)nc3c(F)c(-c4nc(N)cc(C)c4C4CC4)ncc23)C1 [Example 133, 1-(3-(((7-(6-amino-3-cyclopropyl-4-methylpyridin-2-yl)-8-fluoro-2-(((2R,7aS)-2-fluorotetrahydro-1H-pyrrolizin-7a(5H)-yl)methoxy)pyrido[4,3-d]pyrimidin-4-yl)(methyl)amino)methyl)azetidin-1-yl)prop-2-en-1-one] | ≥ 500 nM |
| C=CC(=O)N1CC[C@@H](N(C)c2nc(OCC34CCCN3CCC4)nc3c(F)c(-c4nc(N)cc(C)c4C(F)(F)F)ncc23)C1 [Example 79, (R)-1-(3-((7-(6-amino-4-methyl-3-(trifluoromethyl)pyridin-2-yl)-8-fluoro-2-((tetrahydro-1H-pyrrolizin-7a(5H)-yl)methoxy)pyrido[4,3-d]pyrimidin-4-yl)(methyl)amino)pyrrolidin-1-yl)prop-2-en-1-one] | 10 to 100 nM |
| Cc1nsc(/C=C/C(=O)N2CC[C@@H](N(C)c3nc(OC[C@@]45CCCN4C[C@H](F)C5)nc4c(F)c(-c5nc(N)cc(C)c5C(F)(F)F)ncc34)C2)n1 [Example 164] | 10 to 100 nM |
| C=CC(=O)N1CCC(N(C)c2nc(OC[C@@]34CCCN3C[C@H](F)C4)nc3c(F)c(-c4n[nH]c5cccc(Cl)c45)ncc23)C1 (stereo partly drawn) [Example 224] | ≥ 500 nM |
| CN(c1nc(OC[C@@]23CCCN2C[C@H](F)C3)nc2c(F)c(-c3cccc(Cl)c3C3CC3)ncc12)[C@@H]1CCN(C(=O)/C=C/CN2CC[C@@H](F)C2)C1 [Example 262] | 10 to 100 nM |
| C=CC(=O)N1CC(CN(C)c2nc(OC[C@@]34CCCN3C[C@H](F)C4)nc3c(F)c(-c4nc(N)cc5cccc(F)c45)ncc23)C1 [Example 128, 1-(3-(((7-(3-amino-8-fluoroisoquinolin-1-yl)-8-fluoro-2-(((2R,7aS)-2-fluorotetrahydro-1H-pyrrolizin-7a(5H)-yl)methoxy)pyrido[4,3-d]pyrimidin-4-yl)(methyl)amino)methyl)azetidin-1-yl)prop-2-en-1-one] | ≥ 500 nM |
| Cc1nccc(/C=C/C(=O)N2CC(CN(C)c3nc(OC[C@@]45CCCN4C[C@H](F)C5)nc4c(F)c(-c5nc(N)cc6cccc(F)c56)ncc34)C2)n1 [Example 141, (E)-1-(3-(((7-(3-amino-8-fluoroisoquinolin-1-yl)-8-fluoro-2-(((2R,7aS)-2-fluorotetrahydro-1H-pyrrolizin-7a(5H)-yl)methoxy)pyrido[4,3-d]pyrimidin-4-yl)(methyl)amino)methyl)azetidin-1-yl)-3-(2-methylpyrimidin-4-yl)prop-2-en-1-one] | 10 to 100 nM |
| CN(C)CC#CC(=O)N1CC[C@@H](N(C)c2nc(OC[C@@]34CCCN3C[C@H](F)C4)nc3c(F)c(-c4nc(N)cc5cccc(Cl)c45)ncc23)C1 [Example 91] | 10 to 100 nM |
| CN1CC[C@H]1/C=C/C(=O)N1CC[C@@H](N(C)c2nc(OC[C@@]34CCCN3C[C@H](F)C4)nc3c(F)c(-c4nc(N)cc5cccc(Cl)c45)ncc23)C1 (single isomer, unassigned) [Example 6] | < 10 nM |
| Cc1cc(N)nc(-c2ncc3c(N(C)[C@@H]4CCN(C(=O)/C=C/c5nc(C(C)C)no5)C4)nc(OC[C@@]45CCCN4C[C@H](F)C5)nc3c2F)c1C(F)(F)F [Example 71, (E)-1-((R)-3-((7-(6-amino-4-methyl-3-(trifluoromethyl)pyridin-2-yl)-8-fluoro-2-(((2R,7aS)-2-fluorotetrahydro-1H-pyrrolizin-7a(5H)-yl)methoxy)pyrido[4,3-d]pyrimidin-4-yl)(methyl)amino)pyrrolidin-1-yl)-3-(3-isopropyl-1,2,4-oxadiazol-5-yl)prop-2-en-1-one] | < 10 nM |
| Cc1noc(/C=C/C(=O)N2CC[C@@H](N(C)c3nc(OCC45CCCN4CCC5)nc4c3C[C@H](C)[C@@H](c3nc(N)cc(C)c3C(F)(F)F)C4)C2)n1 (single isomer, unassigned) [Example 17] | 10 to 100 nM |
| Cc1cc(N)nc(-c2ncc3c(N(C)[C@@H]4CCN(C(=O)/C=C/[C@@H]5CCN5C)C4)nc(OC[C@@]45CCCN4C[C@H](F)C5)nc3c2F)c1C(F)(F)F (single isomer, unassigned) [Example 27] | < 10 nM |
| Cc1cc(N)nc(-c2ncc3c(N(C)CC4CN(C(=O)C#CCN5CCOCC5)C4)nc(OC[C@@]45CCCN4C[C@H](F)C5)nc3c2F)c1C(F)(F)F [Example 114] | 10 to 100 nM |
| C=CC(=O)N1CC[C@@H](N(C)c2nc(OC[C@@]34CCCN3C[C@H](F)C4)nc3c(F)c(-c4c(O)cccc4Cl)ncc23)C1 [Example 229] | ≥ 500 nM |
| CN(c1nc(OCC23CCCN2CCC3)nc2c(F)c(-c3nc(N)cc4cccc(F)c34)ncc12)[C@@H]1CCN(C#N)C1 [Example 70, (R)-3-((7-(3-amino-8-fluoroisoquinolin-1-yl)-8-fluoro-2-((hexahydro-1H-pyrrolizin-7a-yl)methoxy)pyrido[4,3-d]pyrimidin-4-yl)(methyl)amino)pyrrolidine-1-carbonitrile] | 100 to 500 nM |
| Cc1cc(N)nc(-c2ncc3c(N(C)[C@@H]4CCN(C(=O)/C=C/[C@@H]5CCN5C)C4)nc(OC[C@@]45CCCN4C[C@H](F)C5)nc3c2F)c1C(F)(F)F [Example 83] | < 10 nM |
